Where a SMILES comes first, the peptide text is derived from it.
Experiments:
E. coli [1] = assay: microbe, parasite or virus in culture; type: cell-based, Escherichia coli; settings: 16 h
Procedure, shortened: (§1)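 MIC read-out = lowest peptide level with no bacterial proliferation. Strains diluted in MH medium to 2×10^6 CFU; peptide twofold serial dilutions in MH added 1:1 in microtiter wells.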

MDREC 1229 = assay: microbe, parasite or virus in culture; type: cell-based, Escherichia coli
Procedure, shortened: as §1

P. aeruginosa = assay: microbe, parasite or virus in culture; type: cell-based, Pseudomonas aeruginosa
Procedure, shortened: as §1

A. baumannii [2] = assay: microbe, parasite or virus in culture; type: cell-based, Acinetobacter baumannii
Procedure, shortened: as §1

MDRAB 12035 = assay: microbe, parasite or virus in culture; type: cell-based, Acinetobacter baumannii
Procedure, shortened: as §1

MDRST 8009 = type: cell-based, Salmonella typhimurium; settings: agent alone
Protocol: For the antibacterial activity, a minimal inhibitory concentration (MIC) of a peptide in which fungus bodies were not split in an MH medium with sufficient nutrients was measured.
Specifically, the strains described in the following [Table 2] were purchased and diluted with an MH medium such that the number of bacteria was 2×10^6 colony-forming units (CFUs), 100 μl of each of the diluted strains was aliquoted into a 96-well microtiter plate, and then 100 μl of a peptide solution diluted with the MH medium (solution diluted stepwise at 2: 1) was added to each well.

B. subtilis = assay: microbe, parasite or virus in culture; type: cell-based, Bacillus subtilis
Procedure, shortened: as §1

S. epidermidis = assay: microbe, parasite or virus in culture; type: cell-based, Staphylococcus epidermidis
Procedure, shortened: as §1

S. aureus = assay: microbe, parasite or virus in culture; type: cell-based, Staphylococcus aureus
Procedure, shortened: as §1

E. coli [3] = assay: MIC of antibiotic during combined treatment with antimicrobial peptide; type: cell-based, Escherichia coli; settings: E. coli
Procedure, shortened: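 Using MH broth, we determined combination MICs by titrating the antibiotic into wells and then repeating under the reverse dilution scheme.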

A. baumannii [4] = assay: as above; type: cell-based, Acinetobacter baumannii; settings: A. baumannii
Protocol: Thereafter, the MIC value of each mixed solution was determined by diluting the antibiotic solution with the MH medium, adding 50 μl of the diluted solution to each well, and performing an experiment even under a reversed condition.

[5] = combined with peptide at 1 μg/ml
[6] = combined with peptide at 2 μg/ml
[7] = combined with peptide at 4 μg/ml
[8] = combined with peptide at 6 μg/ml
[9] = combined with peptide at 8 μg/ml
[10] = combined with peptide at 16 μg/ml
[11] = combined with peptide at 32 μg/ml

CC[C@H](C)[C@H](NC(=O)[C@H](CCCCN)NC(=O)[C@H](Cc1c[nH]c2ccccc12)NC(=O)[C@@H](N)CCCNC(=N)N)C(=O)N[C@@H](Cc1ccccc1)C(=O)N[C@@H](CCCCN)C(=O)N[C@@H](CCCCN)C(=O)N[C@H](C(=O)N1CCC[C@H]1C(=O)N[C@@H](CCCCN)C(=O)N[C@@H](Cc1ccccc1)C(=O)N[C@@H](CC(C)C)C(=O)N[C@@H](Cc1c[nH]cn1)C(=O)N[C@@H](CO)C(=O)N[C@@H](C)C(=O)N[C@@H](CCCCN)C(=O)N[C@@H](CCCCN)C(=O)N[C@@H](Cc1ccccc1)C(N)=O)[C@@H](C)CC [PapMA-1, RWK IFK KIP KFL HSA KKF-NH2] (H-RWKIFKKIPKFLHSAKKF-NH2; N-terminus assumed)
>128 µg/mL: Minimal inhibitory concentration MIC (B. subtilis) | Minimal inhibitory concentration MIC (S. epidermidis) | Minimal inhibitory concentration MIC (S. aureus) | Antibiotic MIC, Vancomycin (E. coli [3]; vancomycin combined with peptide at 1 μg/ml) | Antibiotic MIC, Vancomycin (E. coli [3]; vancomycin combined with peptide at 2 μg/ml) | Antibiotic MIC, Vancomycin (E. coli [3]; vancomycin combined with peptide at 4 μg/ml) | Antibiotic MIC, Linezolid (A. baumannii [4]; [5]) | Antibiotic MIC, Vancomycin (A. baumannii [4]; [5])
0.125 µg/mL: Antibiotic MIC, Erythromycin (E. coli [3]; erythromycin combined with peptide at 32 μg/ml) | Antibiotic MIC, Erythromycin (A. baumannii [4]; [10])
0.0625 µg/mL: Antibiotic MIC, Erythromycin (A. baumannii [4]; [11])
2 µg/mL: Antibiotic MIC, Erythromycin (E. coli [3]; erythromycin combined with peptide at 8 μg/ml) | Antibiotic MIC, Erythromycin (A. baumannii [4]; [8]) | Antibiotic MIC, Vancomycin (A. baumannii [4]; [11])
16 µg/mL: Minimal inhibitory concentration MIC (P. aeruginosa) | Antibiotic MIC, Erythromycin (E. coli [3]; erythromycin combined with peptide at 4 μg/ml) | Antibiotic MIC, Linezolid (E. coli [3]; linezolid combined with peptide at 6 μg/ml) | Antibiotic MIC, Linezolid (E. coli [3]; linezolid combined with peptide at 8 μg/ml) | Antibiotic MIC, Linezolid (E. coli [3]; linezolid combined with peptide at 16 μg/ml) | Antibiotic MIC, Vancomycin (E. coli [3]; vancomycin combined with peptide at 16 μg/ml) | Antibiotic MIC, Erythromycin (A. baumannii [4]; [6]) | Antibiotic MIC, Vancomycin (A. baumannii [4]; [8])
128 µg/mL: Antibiotic MIC, Linezolid (E. coli [3]; linezolid combined with peptide at 1 μg/ml) | Antibiotic MIC, Linezolid (E. coli [3]; linezolid combined with peptide at 2 μg/ml) | Antibiotic MIC, Linezolid (A. baumannii [4]; [6]) | Antibiotic MIC, Vancomycin (A. baumannii [4]; [6])
0.5 µg/mL: Antibiotic MIC, Erythromycin (E. coli [3]; erythromycin combined with peptide at 16 μg/ml) | Antibiotic MIC, Erythromycin (A. baumannii [4]; [9])
0 µg/mL: Antibiotic MIC, Erythromycin (E. coli [3]; erythromycin combined with peptide at 64 μg/ml) | Antibiotic MIC, Linezolid (E. coli [3]; linezolid combined with peptide at 64 μg/ml) | Antibiotic MIC, Vancomycin (E. coli [3]; vancomycin combined with peptide at 64 μg/ml)
4 µg/mL: Antibiotic MIC, Erythromycin (E. coli [3]; erythromycin combined with peptide at 6 μg/ml) | Antibiotic MIC, Vancomycin (E. coli [3]; vancomycin combined with peptide at 32 μg/ml) | Antibiotic MIC, Linezolid (A. baumannii [4]; [10]) | Antibiotic MIC, Linezolid (A. baumannii [4]; [11])
8 µg/mL: Antibiotic MIC, Linezolid (E. coli [3]; linezolid combined with peptide at 32 μg/ml) | Antibiotic MIC, Erythromycin (A. baumannii [4]; [7]) | Antibiotic MIC, Linezolid (A. baumannii [4]; [9]) | Antibiotic MIC, Vancomycin (A. baumannii [4]; [9]) | Antibiotic MIC, Vancomycin (A. baumannii [4]; [10])
64 µg/mL: Minimal inhibitory concentration MIC (E. coli [1]) | Minimal inhibitory concentration MIC (MDREC 1229) | Peptide MIC, peptide alone (MDREC 1229) | Minimal inhibitory concentration MIC (A. baumannii [2]) | Peptide MIC, peptide alone (A. baumannii [2]) | Minimal inhibitory concentration MIC (MDRAB 12035) | Peptide MIC, peptide alone (MDRAB 12035) | Minimal inhibitory concentration MIC (MDRST 8009) | Antibiotic MIC, Erythromycin (E. coli [3]; erythromycin combined with peptide at 1 μg/ml) | Antibiotic MIC, Linezolid (E. coli [3]; linezolid combined with peptide at 4 μg/ml)
32 µg/mL: Antibiotic MIC, Erythromycin (E. coli [3]; erythromycin combined with peptide at 2 μg/ml) | Antibiotic MIC, Vancomycin (E. coli [3]; vancomycin combined with peptide at 6 μg/ml) | Antibiotic MIC, Vancomycin (E. coli [3]; vancomycin combined with peptide at 8 μg/ml) | Antibiotic MIC, Erythromycin (A. baumannii [4]; [5]) | Antibiotic MIC, Linezolid (A. baumannii [4]; [7]) | Antibiotic MIC, Vancomycin (A. baumannii [4]; [7]) | Antibiotic MIC, Linezolid (A. baumannii [4]; [8])
